TGI data for eight molecules are collected here from PubChem BioAssay (NCI).

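Exposure lasted 48 hours, with cells grown in 96-well plates and compounds tested at five concentrations. TGI is the concentration that stops growth completely.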

Some test systems named below: SNB-75 CNS; MOLT-4 leukemia; OVCAR-8 ovarian; SN12C renal; KM12 colon; A549 NSCLC; SW-620 colon; HT29 colon; SK-MEL-2 melanoma; HOP-62 NSCLC; UACC-257 melanoma; RPMI-8226 leukemia; IGROV1 ovarian; U251 CNS; MALME-3M melanoma; OVCAR-4 ovarian; HS 578T breast; NCI/ADR-RES ovarian; BT-549 breast.
What all share (experiment): NCI-60 cell line screen, 48 h

As to `O=C1CCC(c2ccccc2)C(O)(C(=O)O)C1` (stereo not given), the TGI in the assay with SNB-75 CNS, with MOLT-4 leukemia, in the assay with OVCAR-8 ovarian, with SN12C renal, with KM12 colon and in the assay on A549 NSCLC was over 100 µM each time. Besides, the TGI in the assay with SW-620 colon, in the assay on HT29 colon, with SK-MEL-2 melanoma, in the assay with HOP-62 NSCLC, in the assay with UACC-257 melanoma and in the assay with RPMI-8226 leukemia was over 100 µM in each case. For the same molecule, the TGI with IGROV1 ovarian, in the assay on U251 CNS, with MALME-3M melanoma and in the assay with OVCAR-4 ovarian was over 100 µM each time.
On to `COC(=O)CCC(=O)NC1c2cccc3cccc(c23)Cn2c(=O)n(C)c(=O)n21` (stereo not given), for which the TGI in the assay on SNB-75 CNS, in the assay with HS 578T breast, in the assay with NCI/ADR-RES ovarian, with MOLT-4 leukemia, in the assay with OVCAR-8 ovarian and in the assay with SN12C renal was over 100 µM each time. In addition, the TGI in the assay on KM12 colon, with A549 NSCLC, in the assay on SW-620 colon, in the assay with HT29 colon, in the assay with SK-MEL-2 melanoma and in the assay with HOP-62 NSCLC was over 100 µM in each case. Also, the TGI with UACC-257 melanoma, in the assay with BT-549 breast, in the assay on RPMI-8226 leukemia, with IGROV1 ovarian, in the assay on U251 CNS and with MALME-3M melanoma was over 100 µM in each case. The TGI in the assay on OVCAR-4 ovarian is over 100 µM.
For `Cc1cc(=O)[nH]c(NNC(C#N)c2ccc(O)cc2)n1` (stereo not given), the TGI in the assay with SNB-75 CNS, in the assay on MOLT-4 leukemia, with OVCAR-8 ovarian, with SN12C renal, in the assay with KM12 colon and in the assay on A549 NSCLC was over 100 µM each time. In addition, the TGI in the assay with SW-620 colon, in the assay with HT29 colon, in the assay with SK-MEL-2 melanoma, in the assay on HOP-62 NSCLC, in the assay with UACC-257 melanoma and with RPMI-8226 leukemia was over 100 µM throughout. Further, the TGI with IGROV1 ovarian, in the assay on U251 CNS, with MALME-3M melanoma and in the assay with OVCAR-4 ovarian was over 100 µM each time.
In the case of `CC1=CC(=O)NCCN1C`, the TGI with SNB-75 CNS, in the assay with MOLT-4 leukemia, with OVCAR-8 ovarian, in the assay with SN12C renal, with KM12 colon and in the assay with A549 NSCLC was over 100 µM in each case. In addition, the TGI in the assay on SW-620 colon, in the assay on HT29 colon, with SK-MEL-2 melanoma, in the assay with HOP-62 NSCLC, in the assay on UACC-257 melanoma and with IGROV1 ovarian was over 100 µM throughout. The TGI in the assay on U251 CNS, in the assay on MALME-3M melanoma and in the assay on OVCAR-4 ovarian was over 100 µM in each case.
On to `CCOC(=O)CC(NC(=O)c1nc[nH]c1[N+](=O)[O-])C(=O)OCC` (stereo not given), for which the TGI in the assay with SNB-75 CNS, with MOLT-4 leukemia, in the assay on OVCAR-8 ovarian, in the assay with SN12C renal, with KM12 colon and in the assay with A549 NSCLC was over 100 µM in each case. Also, the TGI with SW-620 colon, in the assay with HT29 colon, in the assay on SK-MEL-2 melanoma, with HOP-62 NSCLC, in the assay on UACC-257 melanoma and in the assay with RPMI-8226 leukemia was over 100 µM each time. In addition, the TGI in the assay with IGROV1 ovarian was over 100 µM; in the assay on U251 CNS it was 36.9 µM; in the assay on MALME-3M melanoma, over 100 µM; in the assay with OVCAR-4 ovarian it was over 100 µM.
With `O=C(CSc1nnc(Cc2ccccc2)o1)Nc1cccc([N+](=O)[O-])c1`, the TGI in the assay with SNB-75 CNS, with MOLT-4 leukemia, with OVCAR-8 ovarian, in the assay on SN12C renal, in the assay on KM12 colon and with A549 NSCLC was over 100 µM each time. The TGI in the assay with HT29 colon, in the assay on SK-MEL-2 melanoma, with HOP-62 NSCLC, in the assay with UACC-257 melanoma, with RPMI-8226 leukemia and in the assay with IGROV1 ovarian was over 100 µM each time. The TGI in the assay on U251 CNS, in the assay with MALME-3M melanoma and in the assay on OVCAR-4 ovarian was over 100 µM throughout.
For the molecule `COc1cccc(C2c3cc4c(cc3OC(N3CCCC3)C2C)OCO4)c1` (stereo not given), the TGI is 81 µM with SNB-75 CNS; 34.6 µM in the assay on HS 578T breast; 33.5 µM in the assay on NCI/ADR-RES ovarian; over 100 µM in the assay on OVCAR-8 ovarian; over 100 µM in the assay with SN12C renal; 33 µM in the assay on KM12 colon. For the same molecule, the TGI in the assay on A549 NSCLC was over 100 µM; with SW-620 colon it was over 100 µM; in the assay on HT29 colon, 18.4 µM; with SK-MEL-2 melanoma it was 23.6 µM; in the assay with HOP-62 NSCLC, 19.8 µM; with UACC-257 melanoma, 52.3 µM. In addition, the TGI was 24.3 µM in the assay on RPMI-8226 leukemia and 38.7 µM in the assay with IGROV1 ovarian.
Consider `C=CCN1C(=O)/C(=C/c2ccccc2)NC1=S`, for which the TGI with SNB-75 CNS, with HS 578T breast, with NCI/ADR-RES ovarian, in the assay with MOLT-4 leukemia, in the assay on OVCAR-8 ovarian and in the assay with SN12C renal was over 100 µM in each case. For the same molecule, the TGI with KM12 colon, in the assay with A549 NSCLC, with SW-620 colon, in the assay on HT29 colon, with SK-MEL-2 melanoma and in the assay with HOP-62 NSCLC was over 100 µM each time. Moreover, the TGI in the assay on UACC-257 melanoma, in the assay with BT-549 breast, with RPMI-8226 leukemia, with IGROV1 ovarian, in the assay on U251 CNS and in the assay on MALME-3M melanoma was over 100 µM throughout. The TGI in the assay with OVCAR-4 ovarian was over 100 µM.
